Results published in BindingDB's records for doi:10.1021/cb400407c (Duke University Medical Center, 2013).
Several values for one entry are separate records, joined by “and”; a condition that tells them apart may be missing. Equal entries are not always repeated.

Tests used:
Test in all cases: Kinome Profiling
[1] = biological target: Serine/threonine-protein kinase pim-2 (Homo sapiens, UniProt Q9P1W9)
Protocol: (§1) HS38 was evaluated using a P-33 ATP filter-binding assay by the International Centre for Kinase Profiling (University of Dundee) against 124 purified protein kinases using previously described methods.

[2] = biological target: Rho-associated protein kinase 2 (Homo sapiens, UniProt O75116)
Protocol: as §1

[3] = biological target: Death-associated protein kinase 1 (Homo sapiens, UniProt P53355)
Protocol: as §1

[4] = biological target: Serine/threonine-protein kinase pim-3 (Homo sapiens, UniProt Q86V86)
Protocol: as §1

[5] = biological target: Serine/threonine-protein kinase pim-1 (Homo sapiens, UniProt P11309)
Protocol: as §1

Death-associated protein kinase 1, sequence (P53355 whole entry): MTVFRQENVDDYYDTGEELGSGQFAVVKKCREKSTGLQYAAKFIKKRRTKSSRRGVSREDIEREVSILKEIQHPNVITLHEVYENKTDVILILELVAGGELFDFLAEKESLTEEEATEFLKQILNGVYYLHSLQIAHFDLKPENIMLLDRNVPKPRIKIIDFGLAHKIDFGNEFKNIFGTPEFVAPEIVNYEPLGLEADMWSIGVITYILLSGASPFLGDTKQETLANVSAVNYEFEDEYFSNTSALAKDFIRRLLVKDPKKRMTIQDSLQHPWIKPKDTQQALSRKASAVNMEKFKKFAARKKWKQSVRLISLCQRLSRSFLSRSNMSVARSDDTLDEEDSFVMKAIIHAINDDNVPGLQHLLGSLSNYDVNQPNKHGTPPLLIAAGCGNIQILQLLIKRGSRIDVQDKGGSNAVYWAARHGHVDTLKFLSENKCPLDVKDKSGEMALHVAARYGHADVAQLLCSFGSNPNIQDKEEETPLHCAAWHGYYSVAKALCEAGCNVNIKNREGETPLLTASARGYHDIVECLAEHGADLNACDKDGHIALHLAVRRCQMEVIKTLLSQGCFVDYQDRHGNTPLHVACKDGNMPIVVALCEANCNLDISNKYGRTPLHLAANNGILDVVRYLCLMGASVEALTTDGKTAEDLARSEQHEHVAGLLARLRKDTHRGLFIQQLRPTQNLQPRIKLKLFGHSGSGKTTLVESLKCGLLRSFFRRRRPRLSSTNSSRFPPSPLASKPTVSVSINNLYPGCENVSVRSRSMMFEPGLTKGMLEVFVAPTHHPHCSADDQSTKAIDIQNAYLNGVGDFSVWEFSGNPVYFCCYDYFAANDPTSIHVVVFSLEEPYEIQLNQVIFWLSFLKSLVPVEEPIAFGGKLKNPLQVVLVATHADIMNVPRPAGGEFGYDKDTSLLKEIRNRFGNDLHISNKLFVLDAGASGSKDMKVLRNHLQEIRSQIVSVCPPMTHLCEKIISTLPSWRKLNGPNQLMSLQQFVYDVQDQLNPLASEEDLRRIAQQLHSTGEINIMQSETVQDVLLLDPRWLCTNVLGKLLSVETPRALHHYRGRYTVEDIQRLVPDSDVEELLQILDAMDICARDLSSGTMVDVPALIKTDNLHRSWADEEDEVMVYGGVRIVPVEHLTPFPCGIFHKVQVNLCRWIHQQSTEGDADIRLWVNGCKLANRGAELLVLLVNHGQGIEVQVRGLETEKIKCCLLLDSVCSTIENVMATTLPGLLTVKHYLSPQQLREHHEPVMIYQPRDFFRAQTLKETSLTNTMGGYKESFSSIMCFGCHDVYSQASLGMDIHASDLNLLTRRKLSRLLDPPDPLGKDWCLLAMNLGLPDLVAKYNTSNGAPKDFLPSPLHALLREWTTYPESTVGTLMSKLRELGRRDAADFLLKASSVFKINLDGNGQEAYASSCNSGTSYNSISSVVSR
Serine/threonine-protein kinase pim-1, sequence (P11309 whole entry): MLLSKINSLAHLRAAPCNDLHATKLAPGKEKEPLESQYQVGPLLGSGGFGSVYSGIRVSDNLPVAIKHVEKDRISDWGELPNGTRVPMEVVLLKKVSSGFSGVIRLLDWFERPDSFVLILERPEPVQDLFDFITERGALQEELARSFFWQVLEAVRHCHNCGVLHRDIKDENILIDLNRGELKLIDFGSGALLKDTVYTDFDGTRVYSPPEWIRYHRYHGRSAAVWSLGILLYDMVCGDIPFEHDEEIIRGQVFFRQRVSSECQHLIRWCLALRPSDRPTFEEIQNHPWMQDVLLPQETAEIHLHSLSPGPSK
Serine/threonine-protein kinase pim-2, sequence (Q9P1W9 whole entry): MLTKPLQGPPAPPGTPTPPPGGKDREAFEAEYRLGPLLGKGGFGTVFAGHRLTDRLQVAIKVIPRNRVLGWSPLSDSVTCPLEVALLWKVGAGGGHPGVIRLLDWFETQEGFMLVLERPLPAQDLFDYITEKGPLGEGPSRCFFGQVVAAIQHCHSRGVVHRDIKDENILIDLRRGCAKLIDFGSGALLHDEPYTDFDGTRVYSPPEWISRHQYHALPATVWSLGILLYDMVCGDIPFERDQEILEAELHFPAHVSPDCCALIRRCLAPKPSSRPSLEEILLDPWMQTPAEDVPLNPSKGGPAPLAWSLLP
Rho-associated protein kinase 2, sequence (O75116 whole entry): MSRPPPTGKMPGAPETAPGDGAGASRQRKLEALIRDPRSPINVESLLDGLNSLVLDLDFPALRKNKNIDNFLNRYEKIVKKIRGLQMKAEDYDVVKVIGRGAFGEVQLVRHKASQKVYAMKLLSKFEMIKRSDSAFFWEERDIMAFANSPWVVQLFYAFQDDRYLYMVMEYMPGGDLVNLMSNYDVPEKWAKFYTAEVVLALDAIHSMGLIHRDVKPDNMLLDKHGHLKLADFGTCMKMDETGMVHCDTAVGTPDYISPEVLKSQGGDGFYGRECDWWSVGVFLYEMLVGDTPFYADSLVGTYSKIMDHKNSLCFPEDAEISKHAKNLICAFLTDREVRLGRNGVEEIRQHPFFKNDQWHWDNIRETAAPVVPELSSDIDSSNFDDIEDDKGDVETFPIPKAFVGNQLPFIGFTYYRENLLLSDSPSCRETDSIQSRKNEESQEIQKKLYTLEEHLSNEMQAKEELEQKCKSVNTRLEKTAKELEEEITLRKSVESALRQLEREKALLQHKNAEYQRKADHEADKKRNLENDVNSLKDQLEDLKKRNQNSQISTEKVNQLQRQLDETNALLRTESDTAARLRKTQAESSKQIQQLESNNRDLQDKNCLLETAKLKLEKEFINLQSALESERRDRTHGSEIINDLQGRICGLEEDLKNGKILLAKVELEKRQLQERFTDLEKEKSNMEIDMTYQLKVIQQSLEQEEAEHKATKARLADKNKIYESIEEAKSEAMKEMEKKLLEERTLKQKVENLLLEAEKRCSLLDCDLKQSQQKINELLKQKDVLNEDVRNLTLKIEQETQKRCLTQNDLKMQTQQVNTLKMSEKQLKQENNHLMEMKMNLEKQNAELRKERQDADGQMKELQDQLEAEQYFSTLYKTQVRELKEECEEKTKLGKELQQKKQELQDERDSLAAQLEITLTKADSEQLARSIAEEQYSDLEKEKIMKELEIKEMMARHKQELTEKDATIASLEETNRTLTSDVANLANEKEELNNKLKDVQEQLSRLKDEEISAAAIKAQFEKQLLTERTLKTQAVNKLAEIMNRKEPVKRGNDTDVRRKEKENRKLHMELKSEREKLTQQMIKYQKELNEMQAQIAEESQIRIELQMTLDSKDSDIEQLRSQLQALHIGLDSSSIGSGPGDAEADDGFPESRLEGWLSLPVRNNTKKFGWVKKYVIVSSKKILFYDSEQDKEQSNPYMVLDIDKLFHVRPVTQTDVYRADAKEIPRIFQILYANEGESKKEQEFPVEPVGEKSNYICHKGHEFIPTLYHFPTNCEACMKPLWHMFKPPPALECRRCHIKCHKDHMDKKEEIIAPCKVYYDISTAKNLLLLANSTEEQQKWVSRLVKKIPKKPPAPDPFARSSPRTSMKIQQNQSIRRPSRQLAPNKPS

Structure (SMILES) | Kd [1] [µM] | IC50 [2] [µM] | Kd [3] | Kd [4] [nM] | Kd [5] [nM]
CC(Sc1nc2c(cnn2-c2cccc(Cl)c2)c(=O)[nH]1)C(N)=O (centres undefined) [HS38] | 6.5 | > 200 | 300 nM and 79 nM and 280 nM | 810 | 1800
O=c1[nH]c(SCCO)nc2c1cnn2-c1cccc(Cl)c1 [HS43] | 3.2 |  | 1500 nM and 320 nM | 1600 | 1800
